Results as given in EP4548971A1, “1,4-BENZOTHIAZEPINES AND RELATED COMPOUNDS WITH CYCLOPROPANOL GROUPS AS MULTI-TARGETED DRUGS” (Georg-August-Universität Göttingen Stiftung Öffentlichen …, priority 2023, dated 2025).
“Also recorded” adds a separate entry of the source.

Molecular target: T1, SERCA2 (Homo sapiens, UniProt P16615)
T1 construct: endogenous in cells; host or cells: HEK-293T cells, microsomal membrane vesicles
Assay: NADH-coupled ATPase assay on microsomal membrane vesicles from HEK-293T cells (HEK-293 ER)
Type: biochemical
Set-up: key to SERCA2a HEK ER effect class: +++: a strong effect, comparable to or greater than that of a known compounds at a given concentration (25 µM in RyR2 R-CEPIA1er assay, 10 µM in caffeine assay and on microsomal membrane vesicles); ++: moderate effect; +: observable effect; -: no effect
Conditions: for SERCA2a HEK ER effect class: 10 µM on microsomal membrane vesicles; for effect on SERCA2 ATPase activity, in words: microsomes from HEK-293 ER, 10 µM (1 µM for 14b), vs. 0.1 % DMSO
Method: Isolation of microsomal membrane vesicles from HEK-293T cells (HEK-293 ER) was performed according to Stewart et al.^61 HEK-293T cells were harvested with Trypsin/EDTA, washed twice with ice-cold PBS containing protease inhibitor cocktail (cOmplete™, Roche, Mannheim, Germany) and centrifuged 800 × g for 5 min. The pellet was resuspended in ice-cold lysis buffer (1 mM EDTA, 10 mM HEPES, cOmplete, pH 7.4) and incubated on ice for 20 minutes. After the cells were homogenized with a tight fitting Dounce homogenizer (10-20 strokes), an equal volume of restoration buffer (500 mM sucrose, 10 mM HEPES, cOmplete, pH 7.2) was added and the cells were homogenized again (10-20 strokes). The homogenate was centrifuged at 10000 × g for 20 min at 4° C. The supernatant was collected and centrifuged again for another 2 hours (100000 × g at 4° C). Then the pellet was carefully resuspended in resuspension buffer (250 mM sucrose, 10 mM HEPES, cOmplete, pH 7.2) on ice by pipetting the solution up and down until fully dissolved. The obtained solution was diluted to a protein concentration of 15-20 µg/µl with the resuspension buffer, the aliquots were snap frozen in liquid nitrogen and stored at - 80 °C until usage.
To determine whether new compounds could increase the SERCA2a activity, HEK-293 microsomes (40 - 150 µg of total protein) or mouse ventricular microsomes (1 - 20 µg of total protein) were diluted in 100 µl of the assay buffer used for measurement of SERCA activity (described below) and incubated at room temperature for 5 minutes prior to the experiments. The measurements of SERCA2a activity were made at 28 °C by using a NADH -coupled ATPase assay. Briefly, the assay buffer contained 60 mM MOPS, 120 mM KCI, 6 mM MgCl2, 1 mM EGTA, 5 mM NaN3, 0.5 mM phosphoenolpyruvate and 1.5 mM CaCl2, pH 7.0. Before the reaction was started by the injection of […] ATP (resulting in 2 mM final concentration in the well), 5 units/mL of both lactate dehydrogenase and pyruvate kinase, 0.5 mM NADH, and 1 µM Ca^2+ ionophore A-23187 (Sigma, C-7522) were added to the diluted sample with or without the tested compound. The 1.5 mM Ca/EGTA buffer has a free Ca^2+ concentration of about 200 µM. The NADH fluorescence decrease was recorded each 2 s for 10 min course on a multiwell plate reader TECAN Spark 20M in 96-well glass bottom plates (MatTek Corporation; Cat. No. PBK96G-1.5-5-F). Fluorescence was evoked by 380 nm excitation wavelength and collected in a bottom-read mode at 425 nm. Exposure - 30 flashes, excitation bandwidth - 10 nm, emission bandwidth - 10 nm. ATP was injected at 30 s. […] The data were analyzed with computer software GraphPad Prism version 8.3.1 (GraphPad Software, Inc.). The difference in signal decrease with and without microsomes was taken as an indicator for the additional ATPase activity performed by SERCA2a. The obtained values for maximal SERCA2a activity were normalized for total protein concentration. Maximal SERCA2a activity values are reported as percentages of control (0.1% DMSO) values. Microsomal samples that were kept on ice until usage and set to 100%.
In an NADH assay, the change in NADH coenzyme fluorescence reflects the level of the consumption of ATP, which can be taken as an indicator of SERCA2 activity [G. B. Warren, P. A. Toon, N. J. Birdsall, A. G. Lee, J. C. Metcalfe, Reconstitution of a calcium pump using defined membrane components. Proc. Natl. Acad. Sci. U.S.A. 1974, 71, 622 - 626]. ATP hydrolysis by SERCA2 is required to pump calcium ions into the SER. A higher rate of ATP hydrolysis corresponds to enhanced SERCA2 ATPase activity that leads to a greater pumping of calcium ions into the SR.
The rate of NADH oxidation, which is coupled to ATP hydrolysis, was observed by measuring changes in NADH intrinsic fluorescence over time after ATP injection into microsomal membranes enriched in SER vesicles isolated from mouse heart ventricles (mouse SER) and ER vesicles from HEK-293T cells (HEK-293 ER). […]

T1 sequence (P16615 whole entry): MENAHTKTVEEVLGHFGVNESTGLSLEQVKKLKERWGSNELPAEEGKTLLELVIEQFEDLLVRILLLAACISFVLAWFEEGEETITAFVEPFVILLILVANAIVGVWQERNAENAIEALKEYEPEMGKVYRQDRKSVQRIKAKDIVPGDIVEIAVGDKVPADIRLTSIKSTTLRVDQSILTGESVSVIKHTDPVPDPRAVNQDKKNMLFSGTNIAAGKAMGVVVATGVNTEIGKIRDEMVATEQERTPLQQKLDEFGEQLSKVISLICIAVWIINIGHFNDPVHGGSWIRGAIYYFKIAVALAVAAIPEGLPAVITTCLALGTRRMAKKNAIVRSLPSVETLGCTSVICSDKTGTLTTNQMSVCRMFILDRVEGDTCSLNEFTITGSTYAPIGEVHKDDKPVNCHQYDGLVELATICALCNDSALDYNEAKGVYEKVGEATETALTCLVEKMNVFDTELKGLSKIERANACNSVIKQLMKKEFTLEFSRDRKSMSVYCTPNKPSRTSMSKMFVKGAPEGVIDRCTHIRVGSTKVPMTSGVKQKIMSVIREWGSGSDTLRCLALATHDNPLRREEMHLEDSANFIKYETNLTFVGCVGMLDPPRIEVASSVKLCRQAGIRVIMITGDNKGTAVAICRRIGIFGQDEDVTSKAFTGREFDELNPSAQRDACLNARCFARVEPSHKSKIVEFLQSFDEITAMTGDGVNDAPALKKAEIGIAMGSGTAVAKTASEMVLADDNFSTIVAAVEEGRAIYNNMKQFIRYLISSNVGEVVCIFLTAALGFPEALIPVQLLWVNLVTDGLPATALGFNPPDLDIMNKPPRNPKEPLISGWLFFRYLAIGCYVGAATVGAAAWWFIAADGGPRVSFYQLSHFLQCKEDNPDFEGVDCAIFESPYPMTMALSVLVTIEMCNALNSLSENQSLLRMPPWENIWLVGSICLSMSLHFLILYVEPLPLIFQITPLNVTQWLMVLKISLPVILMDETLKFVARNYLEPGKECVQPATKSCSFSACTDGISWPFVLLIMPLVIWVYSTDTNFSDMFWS

Row | Structure (SMILES) | SERCA2a HEK ER effect class | effect on SERCA2 ATPase activity, in words | EC50 (ATPase activity, range after the semicolon is not explained, read-out: SERCA2a HEK ER (EC50))
1 | COc1ccc2c(c1)CN(CCCCC1(O)CC1)CCS2 [Compound 13d, 1-(4-(7-methoxy-2,3-dihydrobenzo[1,4-f]thiazepin-4(5H)-yl)butyl)cyclopropan-1-ol] | + | significant activation of SERCA2 ATPase; also recorded: slight | 
2 | COc1ccc2c(c1)CN(CCCCN(CCCCC1(O)CC1)CCCCC1(O)CC1)CCS2 [Compound 14a, 1,1'-(((4-(7-Methoxy-2,3-dihydrobenzo[1,4-f]thiazepin-4(5H)-yl)butyl)azanediyl)bis(butane-4,1-diyl))bis(cyclopropan-1-ol)] | ++ |  | 16 nM
3 | COc1ccc(OCCCNCCCCC2(O)CC2)cc1 [Compound 13b, 1-(4-((3-(4-methoxyphenoxy)propyl)amino)butyl)cyclopropan-1-ol] | - |  | 
4 | COc1ccc(SCCCN(CCCCC2(O)CC2)CCCCC2(O)CC2)cc1 [Compound 14c, 1,1'-(((3-((4-Methoxyphenyl)thio)propyl)azanediyl)bis(butane-4,1-diyl))bis(cyclopropan-1-ol)] | + |  | 
5 | COc1ccc(SCCCNCCCCC2(O)CC2)cc1 [Compound 13c, 1-(4-((3-((4-Methoxyphenyl)thio)propyl)amino)butyl)cyclopropan-1-ol] | + | significant activation of SERCA2 ATPase | 
6 | COc1ccc2c(c1)CN(Cc1ccc(C(=O)O)cc1)CCS2 [ARM210, reference compound] | + | significant activation of SERCA2 ATPase | 
7 | COc1ccc2c(c1)CN(CCCCNCCCCC1(O)CC1)CCS2 [Compound 13a, 1-(4-((4-(7-Methoxy-2,3-dihydrobenzo[1,4-f]-thiazepin-4(5H)-yl)butyl)amino)butyl)cyclopropan-1-ol] | - | did not evoke significant increase in ATPase activity; also recorded: could not detect SERCA2 activation | 
